# Data: patent US12221432B2, “Estrogen receptor antagonist” (CHIA TAI TIANQING PHARMACEUTICAL GROUP CO., LTD., priority 2018, dated 2025)
# System: MCF-7 cells
# Assay: MCF-7 cell proliferation inhibition
# Format: cell-based
# Details: 6 days incubation, CellTiter-Glo; read-out: IC50 for MCF-7 cell proliferation inhibition
# Method: EMEM medium was purchased from Wisent, and fetal bovine serum was purchased from Biosera. Promega CellTiter-Glo reagent. MCF-7 cells were purchased from the Cell Bank of Type Culture Collection Committee of the Chinese Academy of Sciences. Nivo5 multi-marker analyzer (PerkinElmer).
# MCF-7 cells were seeded in a white 384-well plate at 600 cells/[…] suspension/well. The plate was incubated in a CO2 incubator overnight.
# On the day of treatment, a day 0 plate coated under the same conditions the day before was taken, centrifuged to remove the medium, added with 25 microliters of Promega CellTiter-Glo reagent to each well, and incubated at room temperature for 10 minutes to stabilize the luminescence signal. Measures were read by PerkinElmer Nivo multi-marker analyzer as an initial value for 0% inhibition.
# The test compounds were serially 5-fold diluted to the 10th concentration with a multichannel pipette, i.e., from 2 millimoles to […], and the experiments were set up in duplicate. 47.5 microliters of medium was added to the intermediate plate, 2.5 microliters of serially diluted compounds were transferred to corresponding wells of the intermediate plate, and after mixing, 5 microliters of the mixture per well was transferred to the cell plate. The plate was incubated in a CO2 incubator for 6 days.
# After 6 days of co-incubation with the compounds, the plate was centrifuged to remove the medium, added with 25 microliters of Promega CellTiter-Glo reagent to each well, and incubated at room temperature for 10 minutes to stabilize the luminescence signal. Measures were read by PerkinElmer Nivo multi-marker analyzer.
# The original data was converted into inhibition rate by the formula: % inhibition=((RFUCmpd−AVER(RFUNeg.Ctrl))/((AVER(RFUDay0)−AVER(RFUNeg.Ctrl))×100%. Curve fitting was conducted and IC50 was calculated.
row,SMILES,IC50 [nM]
1,CC/C(=C(/c1ccc(OCCN(C/C=C/C(=O)N(C)C)C(=O)OC(C)(C)C)nc1)c1[nH]c2ncccc2c1Cl)c1ccccc1 [Compound 5],4.74
2,CN(C)C(=O)/C=C/CNCCOc1ccc(/C(=C(/CC(F)(F)F)c2c(F)cncc2F)c2[nH]c3ccccc3c2Cl)cn1 [Compound 8],2.72

# Same assay, conditions: Homo sapiens, MCF7, 144 h, read-out: IC50 for MCF-7 cell proliferation inhibition
row,SMILES,IC50 [nM]
1,CC/C(=C(/c1ccc(OCCNC/C=C/C(=O)N2CCC2)nc1)c1[nH]c2ccccc2c1Cl)c1ccccc1 [Compound 26],3.82

# Same assay, conditions: Homo sapiens, MCF7, 144 h; 6 days incubation, CellTiter-Glo; read-out: IC50 for MCF-7 cell proliferation inhibition
row,SMILES,IC50 [nM]
1,CC/C(=C(/c1ccc(OCCNC/C=C/C(=O)N2CC(CF)C2)nc1)c1[nH]c2ccccc2c1Cl)c1ccccc1 [Compound 27],0.49
2,CC/C(=C(/c1ccc(OCCNC/C=C/C(=O)N(C)C)nc1)c1[nH]c2ccccc2c1Cl)c1cccc(C)c1 [Compound 18],2.35
3,CC/C(=C(/c1ccc(OCCNC/C=C/C(=O)N(C)C)nc1)c1[nH]c2ccccc2c1Cl)c1ccc(Cl)cc1Cl [Compound 15],1.6
4,CC/C(=C(/c1ccc(OCCNC/C=C/C(=O)N(C)C)nc1)c1[nH]c2ccccc2c1Cl)c1ccccc1Cl [Compound 14],1
5,CN(C)C(=O)/C=C/CNCCOc1ccc(/C(=C(/CC(F)(F)F)c2ccc(F)cc2Cl)c2[nH]c3ccccc3c2Cl)cn1 [Compound 9],2.36
6,CC/C(=C(/c1ccc(OCCNC/C=C/C(=O)N(C)C)nc1)c1[nH]c2ccccc2c1Cl)c1ccc(F)cc1F [Compound 17],2.67
7,C=CC(=O)NCCOc1ccc(/C(=C(/CC)c2ccc(F)cc2Cl)c2[nH]c3ccccc3c2Cl)cn1 [Compound 7],4.25
8,CC/C(=C(/c1ccc(OCCNC/C=C/C(=O)N(C)C)nc1)c1cc2ccccc2[nH]1)c1ccc(F)cc1Cl [Compound 11],4.13
9,CC/C(=C(/c1ccc(OCCNC/C=C/C(=O)N(C)C)nc1)c1[nH]c2ccccc2c1Cl)c1cccc(OC)c1 [Compound 4],0.61
10,CC/C(=C(/c1ccc(OCCNC/C=C/C(=O)N(C)C)cc1)c1[nH]c2ccccc2c1Cl)c1cccc(OC)c1 [Compound 21],2.21
11,CN(C)C(=O)/C=C/CNCCOc1ccc(/C(=C(/CC(F)(F)F)c2ccccc2C#N)c2[nH]c3ccccc3c2Cl)cn1 [Compound 10],2.11
12,CC/C(=C(/c1ccc(OCCNC/C=C/C(=O)N(C)C)nc1F)c1[nH]c2ccccc2c1Cl)c1cccc(OC)c1 [Compound 19],2.75
13,CC/C(=C(/c1ccc(OCCNC/C=C/C(=O)N(C)C)nc1)c1[nH]c2ccccc2c1Cl)c1ccccc1C#N [Compound 2],0.64
14,CC/C(=C(/c1ccc(OCCNC/C=C/C(=O)N(C)C)nc1)c1[nH]c2ccccc2c1Cl)c1ccccc1 [Compound 3],0.87
15,CC/C(=C(/c1ccc(OCCNC/C=C/C(=O)N(C)C)nc1)c1[nH]c2ccccc2c1Cl)c1csc(C)c1 [Compound 16],1.11
16,CC/C(=C(/c1ccc(OCCNC/C=C/C(=O)N(C)C)nc1)c1[nH]c2ccccc2c1C)c1cccc(OC)c1 [Compound 20],1.46
